Measured values reported in patent US4833155A, “3-(ω-(3,5,-di-t-butyl-4-hydroxyphenyl)-alkanoyl)pyrroles, and anti-inflammatory uses thereof” (Syntex (U.S.A.) Inc., priority 1986, dated 1989).
Several values for one entry are separate records, joined by “and”; a condition that tells them apart may be missing. Equal entries are not always repeated.

What was measured:
[1] = system: phenylquinone-induced writhing; test: Phenylquinone-Induced Mouse Writhing Assay "PI" (cyclooxygenase-inhibition activity); type: in vivo
Protocol: Cyclooxygenase-inhibition activity is determined by the Phenylquinone-Induced Mouse Writhing "PI" Assay, as is well accepted in the art. A modification of the assay described by Hendershot, et al., supra., is performed as follows:
Phenylquinone solution is prepared as follows: 4 mg of phenylquinone is dissolved in 0.5 ml of absolute ethanol, after which 19.5 ml of warmed distilled water is added. When properly prepared, all of the phenylquinone solution remains in solution. The solution is used soon after preparation.
The test materials are administered in 0.2 ml of an aqueous vehicle at hour 0 to groups of eight male Swiss-Webster (Simonsen) mice weighing about 18-20 g. At either twenty (20 ) minutes or one hundred twenty (120) minutes later, 0.25 ml of a 0.02% solution of phenylquinone is injected into each animal, to induce writhing. The animals are then observed for the next ten (10) minutes for writhing responses, and the number of writhes per animal is recorded. The mean number of writhes is calculated for each treatment group and the results are expressed as percent inhibition of writhing responses relative to a control group receiving vehicle alone.

[2] = system: carrageenan-induced rat paw inflammation; test: Carrageenan-Induced Rat Paw Inflammation Assay "CI"; type: in vivo; conditions: oral
Protocol: Anti-inflammatory activity is determined by the Carrageenan-Induced Rat Paw Inflammation "CI" Assay, as is well accepted in the art. A modification of the assay described by Winter, et al., supra., is performed as follows:
Female albino rats (Sim: (SD)fbr) weighing 80-90 g receive the test materials orally in 1 ml aqueous solution at hour 0. One hour later (hr 1) 0.05 ml of a 1% solution (in aqueous 0.9% NaCl) of carrageenan is injected into the right hind paw to inflame the paw. The rats are sacrificed at hour 4, at which time both hind paws are removed and individually weighed. The percent increase in the weight of the inflamed paw over that of the opposite non-inflamed paw is calculated, and the results are reported according to the formula: [formula]

[3] = system: arachidonic acid-induced mouse ear edema; test: Arachidonic Acid-Induced Mouse Ear Edema Assay "AAI"; type: in vivo; conditions: topical
Protocol: Topical anti-inflammatory activity is determined by the Arachidonic Acid-Induced Mouse Ear Edema "AAI" Assay, as is well accepted in the art. A modification of the assay described by Young, et al., supra., is performed as follows:
The test materials are prepared as solutions in acetone and applied to the right ears of mice, in groups of eight (8), at hour 0. At hour 1, 2 mg of arachidonic acid in acetone solution is applied to the right ears of the mice to induce an inflammatory response. The left ears of these animals serves as negative controls. At hour 2 the mice are sacrificed; their ears are removed and 8 mm diameter full thickness plugs are cut from the tip of each ear. The plugs are weighed and the mean right and left plug weights are calculated for each group. The results are expressed as percent inhibition of ear plug weight increase relative to a positive control group receiving only acetone at hour 0.

[4] = system: adjuvant-induced arthritis (heat-killed Mycobacterium butyricum), hind paw weight increase; test: Adjuvant-Induced Arthritis Assay "AI"; type: in vivo; conditions: rat, oral, day 18
Protocol: Anti-inflammatory activity is determined by the Adjuvant-Induced Arthritis ("AI") Assay, as is well accepted in the art. A modification of the assay described by Pearson, et al., supra., is performed as follows: Female Hla:(SD) BR rats weighing 160-180 g are randomly distributed to treatment groups of 12 animals, and given food and water ad libitum. Test materials are prepared fresh weekly as suspensions in carboxymethyl cellulose. The test animals are orally dosed with the suspensions in volumes of 1 ml twice per day Monday through Friday, and with 2 ml once per day on Saturdays and Sundays. […] At time 0, rats are injected intradermally in the proximal quarter of the tail with 0.1 ml of a mineral oil suspension of heat-killed Mycobacterium butyricum (Difco) at a concentration of 10 mg/ml. On day 18 the intensity of swelling in the four paws and tail is estimated visually and scored (0-4 for paws, 0-3 for tail) such that the total maximum score, indicating intense swelling of all four paws and tail, is 19. The animals are then sacrificed; the hind paws of each animal are removed and weighed. The percent inhibition is calculated by comparing the weight increase of the hind paws of the test animals versus the control animals.

[5] = Isomura et al., Chem. Pharm. Bull. 32(1): 152-165 (1984); cited from earlier work
[6] = system: lipoxygenase in human polymorphonuclear leukocytes; test: Human Polymorphonuclear Leukocyte Assay "HPMN" (lipoxygenase inhibition); type: cell-based; conditions: dose 36.0 μg
Protocol: Lipoxygenase inhibition activity is determined in vitro by the Human Polymorphonuclear Leukocyte ("HPMN") Assay, as is well accepted in the art. A modification of the assay described by Radmark, et al., supra., is performed as follows:
1. Preparation of the cells: The HPMNs are prepared from 200-300 ml of heparinized blood of healthy donors not receiving any medication for at least 7 days, using Ficol-Hypaque gradients. In general, HPMNs are greater than 90% pure and their viability is assessed by dye-exclusion to be better than 95%. The cells are suspended in phosphate buffered saline containing 1.0 mM CaCl2 (PH 7.4) and 0.1% ovalbumin, and used within 30 minutes.
2. Lipoxygenase Assay: Incubations are carried out at 37° C. for 5 minutes in a total volume of 0.2 ml arachidonic acid 1-C^14 (1×10^-4 M unless otherwise indicated, and approximately 300,000 cpm) is added to a suspension of cells (ca 5×10^6) to initiate the reaction. […]
1.6 Ml of deionized water is added, vortexed, and centrifuged. […] The eluates are collected in scintillation vials and 1.0 ml aliquot from each of the two fractions are counted for radioactivity in a Packard liquid scintillation counter. From the radioactivity data thus obtained percent yields of total lipoxygenase products in blanks, controls and drug-containing tubes are calculated as well as percent inhibition by the test compounds.

[7] = phenylquinone 20 min after dose, 5.0 mg/kg
[8] = phenylquinone 20 min after dose, 15.0 mg/kg
[9] = phenylquinone 120 min after dose, 15.0 mg/kg

Row | Compound | Inhibition (PI), writhing responses ([1]; phenylquinone 20 min after dose, 0.1 mg/kg) | Inhibition (PI), writhing responses ([1]; phenylquinone 20 min after dose, 1.0 mg/kg) | Inhibition (PI), writhing responses ([1]; phenylquinone 20 min after dose, 1.5 mg/kg) | Inhibition (PI), writhing responses [1, 7] | Inhibition (PI), writhing responses [1, 8] | Inhibition (PI), writhing responses [1, 9] | Inhibition (CI) ([2]; dose 1.0 mg/kg) | Inhibition (CI) ([2]; dose 10.0 mg/kg) | Inhibition (AAI), ear plug weight increase ([3]; dose 0.5 mg/ear) | Inhibition (AAI), ear plug weight increase ([3]; dose 1.0 mg/ear) | Inhibition (AAI), ear plug weight increase ([3]; dose 2.0 mg/ear) | inhibition of hind paw weight increase ([4]; daily dose 0.4 mg/kg) | inhibition of hind paw weight increase ([4]; daily dose 2.0 mg/kg) | anti-inflammatory activity as reported [5] | Inhibition (PI), writhing responses ([1]; phenylquinone 20 min after dose, 50.0 mg/kg) | Inhibition (CI) ([2]; dose 100.0 mg/kg) | Inhibition (HPMN), total lipoxygenase products [6]
1 | CC(C)(C)c1cc(C(=O)c2cc[nH]c2)cc(C(C)(C)C)c1O [A, 3-(3,5-di-t-butyl-4-hydroxybenzoyl)pyrrole] | 15% | 61% | 100% | 99% | 97% and 96% | 100% | 24% | 44% | 49% | 62% | 67% and 69% | 54% | 70% |  |  |  | 
2 | Cc1[nH]ccc1-c1cc(C(C)(C)C)c(O)c(C(C)(C)C)c1 [Formula VIII] |  |  |  |  |  |  |  |  |  |  |  |  |  | inactive |  |  | 
3 | CC(C)(C)c1cc(C(=O)c2ccc[nH]2)cc(C(C)(C)C)c1O [B, 2-(3,5-di-t-butyl-4-hydroxybenzoyl)pyrrole, reference compound] |  |  |  | 26% | 40% and 52% and 65% | 49% |  |  |  |  | 22% |  |  |  | 56% and 38% | 30% | 50%
